# Results as given in patent US6514968B1, “Aminoalkoxy carbazoles for the treatment of cns diseases” (Pharmacia & Upjohn Company, priority 1999, dated 2003).
# Molecular target: T1, cloned human 5-HT6 receptor (Homo sapiens, UniProt P50406)
# T1 construct: host or cells: HeLa cells (G-418 selection), membrane preparation
# Assay: 5-HT6 Receptor Binding Assay
# Conditions: [3H]-lysergic acid diethylamide (LSD) radioligand, membranes of Hela cells containing the cloned human 5-HT6 receptor, SPA beads; estimated IC50 converted to Ki by Cheng-Prusoff
# Protocol: 5-HT6 Receptor Binding Assay
# Growth of Cells and Membrane Preparation
# Hela cells containing the cloned human 5-HT6 receptor were acquired from Dr. David R. Sibley's laboratory in National Institute of Health (see Sibley, D. R., J. Neurochemistry, 66, 47-56, 1996). Cells were grown in high glucose Dulbecco's modified Eagle's medium, supplemented with L-glutamine, 0.5% sodium pyruvate, 0.3% penicillin-streptomycin, 0.025% G-418 and 5% Gibco fetal bovine serum and then were harvested, when confluent, in cold phosphate-buffered saline.
# Harvested intact cells were washed once in cold phosphate-buffered saline. The cells were pelleted and resuspended in 100 ml of cold 50 mM Tris, 5 mM EDTA and 5 mM EGTA, pH 7.4. Homogenization was with a Vir Tishear generator, 4 cycles for 30 seconds each at setting 50. The homogenized cells were centrifuged at 700 RPM (1000×g) for 10 minutes and the supernatant was removed. The pellet was resuspended in 100 ml of the above buffer and rehomogenized for 2 cycles. The rehomogenized cells were then centrifuged at 700 RPM (1000×g) for 10 minutes and the supernatant was removed. The combined supernatant (200ml) was centrifuged at 23,000 RPM (80,000×g) for 1 hour in a Beckman Rotor (42.1 Ti). The membrane pellet was resupended in 50-8-ml of assay buffer containing HEPES 20 mM, MgCl2 10 mM, NaCl 150 mM, EDTA 1 mM, pH 7.4 and stored frozen in aliqouts at −70° C.
# The radioligand binding assay used [^3H]-lysergic acid diethylamide (LSD). The assay was carried out in Wallac 96-well sample plates by the addition of 11 μl of the test sample at the appropriate dilution (the assay employed 11 serial concentrations of samples run in duplicate), 11 μl of radioligand, and 178 μl of a washed mixture of WGA-coated SPA beads and membranes in binding buffer. The plates were shaken for about 5 minutes and then incubated at room temperature for 1 hour. The plates were then loaded into counting cassettes and counted in a Wallac MicroBeta Trilux scintillation counter.
# Binding Constant (Ki) Determination
# Eleven serial dilutions of test compounds were distributed to assay plates using the PE/Cetus Pro/Pette pipetter. These dilutions were, followed by radioligand and the bead-membrane mixture prepared as described above. The specifically bound cpm obtained were fit to a one-site binding model using GraphPad Prism ver. 2.0. Estimated IC50 values were converted to Ki values using the Cheng-Prusoff equation (Cheng, Y. C. et al., Biochem. Pharmacol., 22, 3099-108, 1973).
# T1 sequence (P50406 whole entry): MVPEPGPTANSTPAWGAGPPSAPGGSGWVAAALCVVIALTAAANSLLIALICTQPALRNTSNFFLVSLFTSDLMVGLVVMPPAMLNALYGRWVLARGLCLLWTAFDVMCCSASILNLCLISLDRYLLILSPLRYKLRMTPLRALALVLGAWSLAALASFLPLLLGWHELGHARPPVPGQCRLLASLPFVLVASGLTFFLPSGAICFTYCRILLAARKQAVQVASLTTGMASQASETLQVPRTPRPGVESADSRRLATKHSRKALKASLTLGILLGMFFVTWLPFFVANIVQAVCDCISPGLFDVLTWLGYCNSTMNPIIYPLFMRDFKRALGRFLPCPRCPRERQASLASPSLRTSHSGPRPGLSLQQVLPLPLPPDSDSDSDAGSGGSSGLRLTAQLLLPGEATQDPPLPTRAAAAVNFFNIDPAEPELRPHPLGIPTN
row,SMILES,Ki
1,"CCN(CC)CCOc1cccc2c1c1cccc(C)c1n2Cc1ccccc1 [Example 4, N-{2-[(9-Benzyl-8-methyl-9H-carbazol-4-yl)oxy]ethyl}-N,N-diethylamine]",0.018 µM
2,"CCN(CC)CCOc1cccc2c1c1cccc(C)c1n2Cc1ccc(F)cc1 [Example 5, N,N-Diethyl-N-(2-{[9-(4-fluorobenzyl)-8-methyl-9H-carbazol-4-yl]oxy}ethyl)amine]",0.038 µM
3,"c1ccc(Cn2c3ccccc3c3c(OCCNCc4ccccn4)cccc32)cc1 [Example 6, N-{2-[(9-Benzyl-9H-carbazol-4-yl)oxy]ethyl}-N-(2-pyridinylmethyl)amine]",0.069 µM
4,"c1ccc(Cn2c3ccccc3c3c(OCCN4CCOCC4)cccc32)cc1 [Example 8, 9-benzyl-4-[2-(4-morpholinyl)ethoxy]-9H-carbazole]",0.398 µM
5,"OCCN1CCN(CCOc2cccc3c2c2ccccc2n3Cc2ccccc2)CC1 [Example 9, 2-(4-{2-[(9-benzyl-9H-carbazol-4-yl)oxy]ethyl}-1-piperazinyl)-1-ethanol]",0.062 µM
6,"OCCCNCCOc1cccc2c1c1ccccc1n2Cc1ccccc1 [Example 10, 3-({2-[(9-benzyl-9H-carbazol-4-yl)oxy]ethyl}amino)-1-propanol]",0.02 µM
7,"C=CCNCCOc1cccc2c1c1ccccc1n2Cc1ccccc1 [Example 11, N-{2-[(9-benzyl-9H-carbazol-4-yl)oxy]ethyl}-2-propen-1-amine]",0.023 µM
8,c1ccc(Cn2c3ccccc3c3c(OCCNCCCN4CCOCC4)cccc32)cc1 [Example 12],0.184 µM
9,"OCCCCCNCCOc1cccc2c1c1ccccc1n2Cc1ccccc1 [Example 13, 5-({2-[(9-benzyl-9H-carbazol-4-yl)oxy]ethyl}amino)-1-pentanol]",0.043 µM
10,"CCCNCCOc1cccc2c1c1ccccc1n2Cc1ccccc1 [Example 14, N-{2-[(9-benzyl-9H-carbazol-4-yl)oxy]ethyl}-1-propanamine]",0.04 µM
11,"CCCN(CCC)CCOc1cccc2c1c1ccccc1n2Cc1ccccc1 [Example 15, N-{2-[(9-benzyl-9H-carbazol-4-yl)oxy]ethyl}-N-propyl-1-propanamine]",0.394 µM
12,"c1ccc(CN2CCC(NCCOc3cccc4c3c3ccccc3n4Cc3ccccc3)CC2)cc1 [Example 16, 1-benzyl-N-{2-[(9-benzyl-9H-carbazol-4-yl)oxy]ethyl}-4-piperidinamine]",0.148 µM
13,"CC(C)(CO)NCCOc1cccc2c1c1ccccc1n2Cc1ccccc1 [Example 17, 2-({2-[(9-benzyl-9H-carbazol-4-yl)oxy]ethyl}amino)-2-methyl-1-propanol]",0.164 µM
14,"Clc1ccc(CCNCCOc2cccc3c2c2ccccc2n3Cc2ccccc2)cc1 [Example 18, 2-[(9-benzyl-9H-carbazol-4-yl)oxy]-N-(4-chlorophenethyl)-1-ethanamine]",0.356 µM
15,"c1ccc(Cn2c3ccccc3c3c(OCCNCC4CCCCC4)cccc32)cc1 [Example 19, 2-[(9-benzyl-9H-carbazol-4-yl)oxy]-N-(cyclohexylmethyl)-1-ethanamine]",0.311 µM
16,"c1ccc(Cn2c3ccccc3c3c(OCCNCCN4CCOCC4)cccc32)cc1 [Example 20, 2-[(9-benzyl-9H-carbazol-4-yl)oxy]-N-[2-(4-morpholinyl)ethyl]-1-ethanamine]",0.037 µM
17,"CCC(O)CNCCOc1cccc2c1c1ccccc1n2Cc1ccccc1 (stereo not drawn) [Example 21, 1-({2-[(9-benzyl-9H-carbazol-4-yl)oxy]ethyl}amino)-2-butanol]",0.072 µM
18,"Fc1ccc(CCNCCOc2cccc3c2c2ccccc2n3Cc2ccccc2)cc1 [Example 22, 2-[(9-benzyl-9H-carbazol-4-yl)oxy]-N-(4-fluorophenethyl)-1-ethanamine]",0.081 µM
19,"OCCOCCNCCOc1cccc2c1c1ccccc1n2Cc1ccccc1 [Example 23, 2-[2-({2-[(9-benzyl-9H-carbazol-4-yl)oxy]ethyl}amino)ethoxy]-1-ethanol]",0.032 µM
20,"O[C@H]1CCCC[C@@H]1NCCOc1cccc2c1c1ccccc1n2Cc1ccccc1 [Example 24, (1S,2S)-2-({2-[(9-benzyl-9H-carbazol-4-yl)oxy]ethyl}amino)cyclohexanol]",0.085 µM
21,"CCOC(=O)CCNCCOc1cccc2c1c1ccccc1n2Cc1ccccc1 [Example 25, ethyl 3-({2-[(9-benzyl-9H-carbazol-4-yl)oxy]ethyl}amino)propanoate]",0.04 µM

row,SMILES,Ki
1,"c1ccc(Cn2c3ccccc3c3c(OCCNC4CCC4)cccc32)cc1 [Example 26, N-{2-[(9-benzyl-9H-carbazol-4-yl)oxy]ethyl}cyclobutanamine]",0.047 µM
2,"O=CNCCN1CCN(CCOc2cccc3c2c2ccccc2n3Cc2ccccc2)CC1 [Example 27, 2-(4-{2-[(9-benzyl-9H-carbazol-4-yl)oxy]ethyl}-1-piperazinyl)ethylformamide]",0.138 µM
3,"c1ccc(Cn2c3ccccc3c3c(OCCNCc4nc5ccccc5[nH]4)cccc32)cc1 [Example 28, N-(1H-benzimidazol-2-ylmethyl)-2-[(9-benzyl-9H-carbazol-4-yl)oxy]-1-ethanamine]",0.072 µM
4,"OC1CCN(CCOc2cccc3c2c2ccccc2n3Cc2ccccc2)CC1 [Example 29, 1-{2-[(9-benzyl-9H-carbazol-4-yl)oxy]ethyl}-4-piperidinol]",0.011 µM
5,"CN1CCN(CCOc2cccc3c2c2ccccc2n3Cc2ccccc2)CC1 [Example 30, 9-benzyl-4-[2-(4-methyl-1-piperazinyl)ethoxy]-9H-carbazole]",0.012 µM
6,"c1ccc(Cn2c3ccccc3c3c(OCCNC4CC4)cccc32)cc1 [Example 31, N-{2-[(9-benzyl-9H-carbazol-4-yl)oxy]ethyl}-N-cyclopropylamine]",0.021 µM
7,"NCCOc1cccc2c1c1ccccc1n2Cc1ccccc1 [Example 35, 2-[(9-Benzyl-9H-carbazol-4-yl)oxy]ethylamine]",0.023 µM
8,"CCNCCOc1cccc2c1c1ccccc1n2Cc1ccccc1 [Example 37, 2-[(9-benzyl-9H-carbazol-4-yl)oxy]-N-ethyl-1-ethanamine]",0.011 µM
9,"c1ccc(Cn2c3ccccc3c3c(OCCN4CCCC4)cccc32)cc1 [Example 38, 9-Benzyl-4-[2-(1-pyrrolidinyl)ethoxy]-9H-carbazole]",0.0069 µM
10,"c1ccc(Cn2c3ccccc3c3c(OCCN4CCNCC4)cccc32)cc1 [Example 40, 9-Benzyl-4-[2-(1-piperazinyl)ethoxy]-9H-carbazole]",0.088 µM
11,"CCN(CC)CCOc1cccc2c1c1cc(C)ccc1n2Cc1ccccc1 [Example 45, N-{2-[(9-Benzyl-6-methyl-9H-carbazol-4-yl)oxy]ethyl}-N,N-diethylamine]",0.0066 µM
12,"CCN(CC)CCOc1cccc2c1c1cc(C)ccc1n2Cc1ccc(F)cc1 [Example 48, N,N-Diethyl-N-(2-{[9-(4-fluorobenzyl)-6-methyl-9H-carbazol-4-yl]oxy}ethyl)amine]",0.123 µM
13,"NCCOc1cccc2c1c1ccccc1n2Cc1csc2ccc(Cl)cc12 [Example 50, 2-({9-[(5-Chloro-1-benzothiophen-3-yl)methyl]-9H-carbazol-4-yl}oxy)ethylamine]",0.138 µM
14,"Cc1nc(Cn2c3ccccc3c3c(OCCN)cccc32)cs1 [Example 51, 2-({9-[(2-Methyl-1,3-thiazol-4-yl)methyl]-9H-carbazol-4-yl}oxy)ethylamine]",0.113 µM
15,"NCCOc1c(Cl)ccc2c1c1ccccc1n2Cc1ccccc1 [Example 52, 2-[(9-Benzyl-3-chloro-9H-carbazol-4-yl)oxy]ethylamine]",0.024 µM
16,"NCCOc1cccc2c1c1ccccc1n2Cc1cccc(Br)c1 [Example 53, 2-{[9-(3-Bromobenzyl)-9H-carbazol-4-yl]oxy}ethylamine]",0.127 µM
17,"NCCOc1cccc2c1c1ccccc1n2Cc1cccc(F)c1 [Example 54, 2-{[9-(3-Fluorobenzyl)-9H-carbazol-4-yl]oxy}ethylamine]",0.101 µM
18,"Cc1ccc(Cn2c3ccccc3c3c(OCCN)cccc32)cc1 [Example 55, 2-{[9-(4-Methylbenzyl)-9H-carbazol-4-yl]oxy}ethylamine]",0.482 µM
19,"NCCOc1cccc2c1c1ccccc1n2Cc1ccccc1F [Example 56, 2-{[9-(2-Fluorobenzyl)-9H-carbazol-4-yl]oxy}ethylamine]",0.119 µM
20,"COc1cccc(Cn2c3ccccc3c3c(OCCN)cccc32)c1 [Example 57, 2-{[9-(3-Methoxybenzyl)-9H-carbazol-4-yl]oxy}ethylamine]",0.11 µM
21,"Cc1cccc(Cn2c3ccccc3c3c(OCCN)cccc32)c1 [Example 59, 2-{[9-(3-Methylbenzyl)-9H-carbazol-4-yl]oxy}ethylamine]",0.02 µM
